Experimental data: PMC3298469, “A selective and potent CXCR3 antagonist SCH 546738 attenuates the development of autoimmune diseases and delays graft rejection” (BMC Immunology, 2012)

Columns and labels:
[1] = plasma pharmacokinetics after oral dosing in C57BL/6 mouse; assay type: in vivo; conditions: 30 mg/kg, 30 mpk oral in 0.4% methylcellulose, n = 3, read-out: AUC (0-24 hr)
Description: SCH 546738 was tested at concentrations of 1-10 μM against a panel of 49 GPCR binding assays. Most of the assays were not affected by SCH 546738 (Table 2). […] In addition, SCH 546738 has a favourable pharmacokinetic profile in rodents. […] Therefore, SCH 546738 is suitable for in vivo preclinical studies.
Figure 4 Plasma concentration versus time profiles of SCH 546738 in Lewis rat and C57BL/6 mouse. SCH 546738 in 0.4% methylcellulose was administered orally at 10 mg/kg (mpk) in Lewis rats or 30 mpk in C57BL/6 mice. The plasma concentration of SCH 546738 in the blood was calculated as the mean of 3 animals (n = 3) at indicated time points post-dose. Their AUC from 0 to 24 hr is also calculated and indicated.

CXCR3 = biological target: T1, CXCR3 (Homo sapiens, UniProt P49682); test: human activated T cell chemotaxis induced by CXCL9, CXCL10, CXCL11; assay type: cell-based; set-up: endogenous in cells
T1 sequence (P49682 1-368): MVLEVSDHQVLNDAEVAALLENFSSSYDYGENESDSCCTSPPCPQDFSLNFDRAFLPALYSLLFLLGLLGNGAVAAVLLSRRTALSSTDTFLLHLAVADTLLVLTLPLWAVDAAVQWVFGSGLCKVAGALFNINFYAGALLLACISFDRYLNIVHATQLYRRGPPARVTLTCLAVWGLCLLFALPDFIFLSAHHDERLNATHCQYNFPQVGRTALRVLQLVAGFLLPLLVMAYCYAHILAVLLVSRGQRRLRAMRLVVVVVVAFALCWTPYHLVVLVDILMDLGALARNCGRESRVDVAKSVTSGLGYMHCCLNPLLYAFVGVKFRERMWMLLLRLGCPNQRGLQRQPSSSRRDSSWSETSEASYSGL
Description: The preparation of human activated T cells was performed as described previously [39]. Human peripheral blood lymphocytes were prepared by Ficoll-Hypaque centrifugation, depleted of monocytes, and stimulated for 2 days with 1 µg/ml PHA (Murex Diagnostics, Dartford, U.K.) and 100 U/ml IL-2 (Sigma, St. Louis, MO) in RPMI 1640 supplemented with 10% fetal bovine serum (FBS), 2 mM L-glutamine, 100 µg/ml streptomycin, 100 U/ml penecillin, 1% non-essential amino acids and 2 mM HEPES. Following stimulation, peripheral blood lymphocytes were cultured in above media containing 5% conditioned media (Sigma) for up to 15 days.

CCR7 = CCR7 (Homo sapiens, UniProt P32248); test: human activated T cell chemotaxis induced by CCL19; assay type: cell-based; set-up: endogenous in cells; conditions: 1, 10 or 100 nM compound
Description: The preparation of human activated T cells was performed as described previously. Human peripheral blood lymphocytes were prepared by Ficoll-Hypaque centrifugation, depleted of monocytes, and stimulated for 2 days with 1 µg/ml PHA (Murex Diagnostics, Dartford, U.K.) and 100 U/ml IL-2 (Sigma, St. Louis, MO) in RPMI 1640 supplemented with 10% fetal bovine serum (FBS), 2 mM L-glutamine, 100 µg/ml streptomycin, 100 U/ml penecillin, 1% non-essential amino acids and 2 mM HEPES. Following stimulation, peripheral blood lymphocytes were cultured in above media containing 5% conditioned media (Sigma) for up to 15 days.
Human activated T cell chemotaxis assays were performed using 96-well ChemoTx® microplates (Neuro Probe, Inc., Gaithersburg, MD) with a 3 µm filter as per manufacturers' instructions. Activated T cells were washed with RPMI medium twice, and then resuspended in the medium containing 20% FBS. 1.25 × 10^5 cells/reaction were mixed with indicated concentrations of the compound and placed on the filter. The compound and chemokines were mixed and placed in the bottom well of the ChemoTx system. […] The number of migrated cells was measured using the Cell Titer Glo Luminescent Assay from Promega (Madison, WI) as per vendor's instructions. Chemotaxis is expressed as a chemotactic index, which is a ratio versus the one without chemokines (spontaneous migration). […]

Sequence of CCR7 (P32248 25-378): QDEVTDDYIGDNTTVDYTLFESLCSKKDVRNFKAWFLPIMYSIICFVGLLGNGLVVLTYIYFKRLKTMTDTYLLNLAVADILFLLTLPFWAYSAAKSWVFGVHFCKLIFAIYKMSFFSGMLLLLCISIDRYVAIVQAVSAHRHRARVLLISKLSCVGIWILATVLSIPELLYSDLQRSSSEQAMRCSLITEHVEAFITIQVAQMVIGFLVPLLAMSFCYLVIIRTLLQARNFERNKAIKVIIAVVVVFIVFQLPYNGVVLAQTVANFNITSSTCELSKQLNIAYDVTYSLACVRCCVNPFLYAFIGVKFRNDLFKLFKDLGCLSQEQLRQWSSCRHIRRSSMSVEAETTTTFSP

With `CC[C@H]1CN(c2nc(N)c(C(N)=O)nc2Cl)CCN1C1CCN(Cc2ccc(Cl)cc2)CC1` [SCH 546738] the AUC(0-t) [1] was 12.6 µM·h, the inhibition at 0.01 µM (CXCR3; 10 nM compound, CXCL9, CXCL10, CXCL11, 20% FBS, read-out: inhibition of T cell chemotaxis induced by all three CXCR3 ligands) was about 90% and the IC90 (CXCR3; human activated T cells, read-out: IC90 of CXCR3-mediated chemotaxis) was about 10 nM. The “effect on T cell chemotaxis induced by the CCR7 ligand CCL19” value (CCR7) was “did not affect”.
